Measured values from patent US20150336889A1, “INDOLE DERIVATIVES, PHARMACEUTICAL COMPOSITIONS CONTAINING SUCH INDOLES AND THEIR USE AS DNA METHYLATION MODULATORS” (IKERCHEM, S.L., priority 2012, published 2015).
Structures can show the parent of a compound that is named as a salt.

What was measured:
[1] = biological target: T1, Human DNMT1 (Homo sapiens, UniProt P26358); assay: DNMT1 enzymatic activity inhibition, radioisotope-based 3H-SAM filter binding assay; format: biochemical; conditions: 1 μM SAM, 25 nM DNMT1, 0.005 mg/ml Poly(dI-dC), 30° C. 1 hour, 10-dose
T1 construct: a-a 2-1632, with N-terminal GST tag; GST (N)
T1 sequence (P26358 2-1632 isoform P26358-2): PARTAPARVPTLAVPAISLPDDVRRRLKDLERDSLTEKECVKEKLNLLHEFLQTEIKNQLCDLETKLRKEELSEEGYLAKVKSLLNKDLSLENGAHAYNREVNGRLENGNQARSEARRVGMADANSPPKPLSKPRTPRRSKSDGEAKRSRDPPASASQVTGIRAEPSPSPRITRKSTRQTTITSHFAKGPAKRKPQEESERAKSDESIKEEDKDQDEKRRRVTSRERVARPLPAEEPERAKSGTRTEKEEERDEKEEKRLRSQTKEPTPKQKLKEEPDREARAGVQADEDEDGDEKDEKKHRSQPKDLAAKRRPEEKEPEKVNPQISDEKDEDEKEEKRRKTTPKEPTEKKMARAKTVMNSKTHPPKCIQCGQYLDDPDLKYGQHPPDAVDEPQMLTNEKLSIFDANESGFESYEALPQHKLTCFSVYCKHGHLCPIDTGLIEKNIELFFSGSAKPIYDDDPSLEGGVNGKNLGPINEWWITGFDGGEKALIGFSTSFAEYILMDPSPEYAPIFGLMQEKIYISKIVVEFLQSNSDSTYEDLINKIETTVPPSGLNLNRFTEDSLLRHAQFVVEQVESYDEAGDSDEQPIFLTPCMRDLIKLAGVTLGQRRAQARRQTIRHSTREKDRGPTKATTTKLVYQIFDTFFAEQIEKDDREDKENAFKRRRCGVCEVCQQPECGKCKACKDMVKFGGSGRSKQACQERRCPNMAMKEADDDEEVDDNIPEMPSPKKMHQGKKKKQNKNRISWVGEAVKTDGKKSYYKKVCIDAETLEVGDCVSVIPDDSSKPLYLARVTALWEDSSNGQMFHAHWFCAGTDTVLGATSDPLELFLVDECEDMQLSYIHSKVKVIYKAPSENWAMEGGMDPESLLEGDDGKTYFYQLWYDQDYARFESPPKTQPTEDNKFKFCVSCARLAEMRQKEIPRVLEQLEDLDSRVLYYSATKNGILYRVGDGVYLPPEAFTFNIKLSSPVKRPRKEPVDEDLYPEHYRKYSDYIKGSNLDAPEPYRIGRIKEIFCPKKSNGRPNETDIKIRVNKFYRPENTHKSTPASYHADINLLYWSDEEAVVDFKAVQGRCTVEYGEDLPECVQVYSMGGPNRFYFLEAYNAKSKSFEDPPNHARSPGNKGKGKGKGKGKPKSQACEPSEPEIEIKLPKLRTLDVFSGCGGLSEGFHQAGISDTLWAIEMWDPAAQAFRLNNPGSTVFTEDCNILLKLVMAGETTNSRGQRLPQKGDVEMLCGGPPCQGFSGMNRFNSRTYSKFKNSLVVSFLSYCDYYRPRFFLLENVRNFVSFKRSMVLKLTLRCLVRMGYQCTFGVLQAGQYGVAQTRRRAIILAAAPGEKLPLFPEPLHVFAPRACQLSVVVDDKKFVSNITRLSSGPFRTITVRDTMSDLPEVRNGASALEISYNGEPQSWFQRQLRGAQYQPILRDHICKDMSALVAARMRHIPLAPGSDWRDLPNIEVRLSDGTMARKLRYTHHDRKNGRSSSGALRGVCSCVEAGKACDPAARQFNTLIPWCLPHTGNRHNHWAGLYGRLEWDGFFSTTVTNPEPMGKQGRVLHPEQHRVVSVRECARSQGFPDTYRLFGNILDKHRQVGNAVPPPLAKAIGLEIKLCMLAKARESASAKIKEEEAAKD
Description: The inhibition of the enzymatic activity of DNMT1 was tested using low volume radioisotope-based assay which uses tritium-labeled AdoMet (^3H-SAM) as a methyl donor. Inhibitors diluted in DMSO were added by using acoustic technology (Echo550, Labcyte Inc. Sunnyvale, Calif.) into enzyme/substrate mixture in nano-liter range. The reaction was initiated by the addition of ^3H-SAM, and incubated at 30° C. for 1 hour. Total final methylations on the substrate poly(dI-dC) were detected by a filter binding approach. Data analysis was performed using GraphPad Prism software (La Jolla, Calif.) for IC50 curve fits.

[2] = test system: NCI-H358; assay: Cancer cell growth inhibition, NCI-H358; format: cell-based; conditions: Homo sapiens; Lung, NCI-H358, cell viability, 72 h
Description: (§1) Cell culture-based assays were used to evaluate the ability of compounds of the invention to inhibit cancer cell growth inhibition.
(§2) Cells were obtained from the American Type Culture Collection (ATCC) and European Collection of Cell Cultures (ECACC).
(§3) Cells were thawed in their appropriate media plus supplements (see table below). Cells were passaged at confluence by washing once in HBSS cation-free followed by a 3 minutes incubation with trypsin ([0.5 μg/ml]/EDTA [0.2 μg/ml]) (Gibco-BRL, 15400054) solution in HBSS at 37° C. (except non-adherent cell lines), and transferred to their appropriate media plus supplements. Prior to seeding at defined cell concentration, cells were recovered in medium, centrifuged and taken up in medium, and counted.
(§4) Cells were plated at 3000/5000/10000 cells/well in 100 μl media in tissue culture 96 well plates (Cultek). After 24 h, media was supplemented by 100 μl/well of diluted IPDNs at 100 μM.
(§5) The Hexosaminidase assay was used for the adherent cell lines, whereas the AlamarBlue® assay was used for the non-adherent cell lines.
(§6) Dose-response curves were generated by serial dilutions (1:1) of the compounds. […] Reagent blanks, containing media plus colorimetric reagent without cells were run on each plate. Blank values were subtracted from test values and were routinely 5-10% of uninhibited control values. Plates were incubated 72 h, and living cell number was determined by AlamarBlue® and Hexosaminidase test. The advantages of using those assays are that both can be done in the same microwell plate. AlamarBlue® assay: plates were incubated 72 h and living cell number was determined by AlamarBlue (Biosource DAL1100). After 4 h incubation at 37° C., relative fluorescent intensity, which correlates with the number of living cells, was read in a Cytofluor plate reader (Millipore) at 535/590 nm (Excitation/emission). The hexosaminidase activity was measured according to the following protocol: the media was removed and cells were washed once with PBS.
(§7) Data analysis was done by calculating the percentage of cell viability normalized in front of negative control values, which were considered as a 100%. The curve was adjusted using a sigmoidal dose-response (variable slope) equation and EC50 values were obtained from the equation
(§8) where, X is the logarithm of concentration. Y is the response. Bottom is the Y value at the bottom plateau Top is the Y value at the top plateau LogEC50 is the X value when the response is halfway between Bottom and Top. With different kinds of variables, this variable is sometimes called ED50 (effective dose, 50%), or IC50 (inhibitory concentration, 50%, used when the curve goes downhill).

[3] = test system: HCT-116; assay: Cancer cell growth inhibition, HCT-116; format: cell-based; conditions: Homo sapiens; Colorectal, HCT-116, cell viability, 72 h
Description: as §1, §2, §3, §4, §5, §6, §7, §8

[4] = test system: A-431; assay: Cancer cell growth inhibition, A-431; format: cell-based; conditions: Homo sapiens; Epidermoid, A-431, cell viability, 72 h
Description: as §1, §2, §3, §4, §5, §6, §7, §8

[5] = test system: MDA-MB-435; assay: Cancer cell growth inhibition, MDA-MB-435; format: cell-based; conditions: Homo sapiens; Melanoma, MDA-MB-435, cell viability, 72 h
Description: as §1, §2, §3, §4, §5, §6, §7, §8

[6] = test system: Jurkat; assay: Cancer cell growth inhibition, Jurkat; format: cell-based; conditions: Homo sapiens, Hematologic, cell viability, 72 h
Description: as §1, §2, §3, §4, §5, §6, §7, §8

[7] = test system: T47D; assay: Cancer cell growth inhibition, T47D; format: cell-based; conditions: Homo sapiens, Breast, cell viability, 72 h
Description: as §1, §2, §3, §4, §5, §6, §7, §8

[8] = test system: MCF-7; assay: Cancer cell growth inhibition, MCF-7; format: cell-based; conditions: Homo sapiens, MCF7; Breast, MCF-7, cell viability, 72 h
Description: as §1, §2, §3, §4, §5, §6, §7, §8

[9] = test system: U-87MG; assay: Cancer cell growth inhibition, U-87MG; format: cell-based; conditions: Homo sapiens, Brain, cell viability, 72 h
Description: as §1, §2, §3, §4, §5, §6, §7, §8

[10] = test system: CCFR-CEM; assay: Cancer cell growth inhibition, CCFR-CEM; format: cell-based; conditions: Hematologic, cell viability, 72 h
Description: as §1, §2, §3, §4, §5, §6, §7, §8

[11] = test system: SK-HEP-1; assay: Cancer cell growth inhibition, SK-HEP-1; format: cell-based; conditions: Homo sapiens, SK-HEP1; Liver, SK-HEP-1, cell viability, 72 h
Description: as §1, §2, §3, §4, §5
as §6, with “PBS. […]” for “PBS.”

[12] = test system: NCI-H1975; assay: Cancer cell growth inhibition, NCI-H1975; format: cell-based; conditions: Homo sapiens; Lung, NCI-H1975, cell viability, 72 h
Description: as §1, §2, §3, §4, §5, §6, §7, §8

[13] = test system: Daoy; assay: Cancer cell growth inhibition, Daoy; format: cell-based; conditions: Homo sapiens, Brain, cell viability, 72 h
Description: as §1, §2, §3, §4, §5, §6, §7, §8

[14] = test system: MiaPaCa-2; assay: Cancer cell growth inhibition, MiaPaCa-2; format: cell-based; conditions: Homo sapiens, MIA PaCa-2; Pancreatic, MiaPaCa-2, cell viability, 72 h
Description: as §1, §2, §3, §4, §5, §6, §7, §8

[15] = test system: RPMI-8226; assay: Cancer cell growth inhibition, RPMI-8226; format: cell-based; conditions: Homo sapiens; Multiple Myelome, RPMI-8226, cell viability, 72 h
Description: as §1, §2, §3, §4, §5, §6, §7, §8

Structure (SMILES)	IC50 [1] [µM]	other results
COc1ccc2c(-c3ccc(O)cc3)cn(CC(=O)c3ccc(O)cc3)c2c1 [Example 1, 1-(4-hydroxyphenyl)-2-[3-(4-hydroxyphenyl)-6-methoxy-1H-indol-1-yl]ethanone]	73.1	
COc1ccc2c(-c3cccc(O)c3)cn(CC(=O)c3cccc(O)c3)c2c1 [Example 2, 1-(3-hydroxyphenyl)-2-[3-(3-hydroxyphenyl)-6-methoxy-1H-indol-1-yl]ethanone]	30.6	
COc1ccc2c(-c3ccccc3O)cn(CC(=O)c3ccccc3O)c2c1 [Example 3, 1-(2-hydroxyphenyl)-2-[3-(2-hydroxyphenyl)-6-methoxy-1H-indol-1-yl]ethanone]	56.7	
COc1ccc2c(-c3ccc(O)c(O)c3O)cn(CC(=O)c3ccc(O)c(O)c3O)c2c1 [Example 5, 2-[6-methoxy-3-(2,3,4-trihydroxyphenyl)-1H-indol-1-yl]-1-(2,3,4-trihydroxyphenyl) ethanone]	3.53	
COc1cc(OC)c2c(-c3ccccc3O)cn(CC(=O)c3ccccc3O)c2c1 [Example 7, 1-(2-hydroxyphenyl)-2-[3-(2-hydroxyphenyl)-4,6-dimethoxy-1H-indol-1-yl]ethanone]	32.9	
COc1cc(OC)c2c(-c3ccc(O)cc3O)cn(CC(=O)c3ccc(O)cc3O)c2c1 [Example 9, 1-(2,4-dihydroxyphenyl)-2-[3-(2,4-dihydroxyphenyl)-4,6-dimethoxy-1H-indol-1-yl]ethanone]	181	
COc1cc(OC)c2c(-c3cc(O)cc(O)c3)cn(CC(=O)c3cc(O)cc(O)c3)c2c1 [Example 10, 1-(3,5-dihydroxyphenyl)-2-[3-(3,5-dihydroxyphenyl)-4,6-dimethoxy-1H-indol-1-yl]ethanone]	44.6	
COc1cc(OC)c2c(-c3ccc(F)cc3)cn(CC(=O)c3ccc(F)cc3)c2c1 [Example 12, 1-(4-fluorophenyl)-2-[3-(4-fluorophenyl)-4,6-dimethoxy-1H-indol-1-yl]ethanone]	104	
COc1ccc(OC)c2c1c(-c1ccc(O)cc1)cn2CC(=O)c1ccc(O)cc1 [Example 13, 1-(4-hydroxyphenyl)-2-[3-(4-hydroxyphenyl)-4,7-dimethoxy-1H-indol-1-yl]ethanone]	98.4	
COc1cc2c(-c3ccc(O)cc3)cn(CC(=O)c3ccc(O)cc3)c2cc1OC [Example 14, 1-(4-hydroxyphenyl)-2-[3-(4-hydroxyphenyl)-5,6-dimethoxy-1H-indol-1-yl]ethanone]	43.3	
COc1cc2c(cc1O)c(-c1ccc(O)cc1)cn2CC(=O)c1ccc(O)cc1 [Example 15, 2-[5-hydroxy-3-(4-hydroxyphenyl)-6-methoxy-1H-indol-1-yl]-1-(4-hydroxyphenyl)ethanone]	576	
O=C(Cn1cc(-c2ccc(O)cc2)c2ccc(O)cc21)c1ccc(O)cc1 [Example 17, 2-[6-hydroxy-3-(4-hydroxyphenyl)-1H-indol-1-yl]-1-(4-hydroxyphenyl) ethanone]	50.9	
O=C(Cn1cc(-c2ccc(O)cc2)c2cc(O)ccc21)c1ccc(O)cc1 [Example 18, 2-[5-hydroxy-3-(4-hydroxyphenyl)-1H-indol-1-yl]-1-(4-hydroxyphenyl) ethanone]	32.9	
O=C(Cn1cc(-c2ccc(O)cc2)c2cc(F)ccc21)c1ccc(O)cc1 [Example 19, 2-[5-fluoro-3-(4-hydroxyphenyl)-1H-indol-1-yl]-1-(4-hydroxyphenyl) ethanone]	59.1	
O=C(Cn1cc(-c2ccc(O)cc2)c2ccccc21)c1ccc(O)cc1 [Example 20, 1-(4-hydroxyphenyl)-2-[3-(4-hydroxyphenyl)-1H-indol-1-yl]ethanone]	241	
COc1cc(OC)c2c(-c3ccc(O)cc3)cn(C/C(=N/O)c3ccc(O)cc3)c2c1 [Example 21, (E)-1-(4-Hydroxyphenyl)-2-[3-(4-hydroxyphenyl)-4,6-dimethoxy-1H-indol-1-yl]ethanone oxime]	104	
COc1cc(OC)c2c(-c3ccc(O)cc3)cn(C/C(=N\O)c3ccc(O)cc3)c2c1 [Example 22, (Z)-1-(4-hydroxyphenyl)-2-[3-(4-hydroxyphenyl)-4,6-dimethoxy-1H-indol-1-yl]ethanone oxime]	22.5	
COc1cccc(N(CC(=O)c2ccc(O)c(O)c2O)CC(=O)c2ccc(O)c(O)c2O)c1 [Example 23, 2,2′-[(3-methoxyphenyl)azanediyl]-bis[1-(2,3,4-trihydroxyphenyl)ethanone]]	27.4	
COc1cc(OC)cc(N(CC(=O)c2ccc(O)c(O)c2O)CC(=O)c2ccc(O)c(O)c2O)c1 [Example 24, 2,2′-[(3,5-dimethoxyphenyl)azanediyl]-bis[1-(2,3,4-trihydroxyphenyl)ethanone]]	15.6	
COc1ccc2c(-c3ccc(O)cc3)cn(CC(=O)c3ccc(O)cc3)c2c1 [Example 25, potassium phenoxide salt of 1-(4-hydroxyphenyl)-2-[3-(4-hydroxyphenyl)-6-methoxy-1H-indol-1-yl]ethanone]	19.5	
COc1cc(OC)c2c(-c3ccc(O)cc3)cn(CC(=O)c3ccc(O)cc3)c2c1 [Example 26, potassium phenoxide salt of 1-(4-hydroxyphenyl)-2-[3-(4-hydroxyphenyl)-4,6-dimethoxy-1H-indol-1-yl]ethanone]	40.4	
COc1cc(OC)c2c(-c3ccc(O)cc3)cn(CC(=O)c3ccc(O)cc3)c2c1 [Example 27, calcium phenoxide salt of 1-(4-hydroxyphenyl)-2-[3-(4-hydroxyphenyl)-4,6-dimethoxy-1H-indol-1-yl]ethanone]	46.8	
COc1cc(OC)c2c(-c3ccc(OC(C)=O)c(OC(C)=O)c3)cn(CC(=O)c3ccc(OC(C)=O)c(OC(C)=O)c3)c2c1 [Example 30, 4-{1-[2-(3,4-diacetoxyphenyl)-2-oxoethyl]-4,6-dimethoxy-1H-indol-3-yl}-1,2-phenylene diacetate]		EC50 [2]: 53 µM; EC50 [3]: 64 µM; EC50 [4]: 88 µM; EC50 [5]: 23 µM; EC50 [6]: 49 µM; EC50 [7]: 47 µM; EC50 [8]: 88 µM; EC50 [9]: 75 µM; EC50 [10]: 40 µM; EC50 [11]: 39 µM; EC50 [12]: 47 µM; EC50 [13]: 50 µM; EC50 [14]: 55 µM; EC50 [15]: 36 µM
